Source: US20250205158A1, “BIODEGRADABLE LIPIDS AND FORMULATIONS FOR DELIVERY OF MRNA” (Massachusetts Institute of Technology, priority 2023, published 2025)
Several values for one entry are separate records, joined by “and”; a condition that tells them apart may be missing. Equal entries are not always repeated. Where two headings read alike, the source gives them in different places.

Experiments:
[1] = LNP characterization (diameter, PDI, % EE); assay type: physicochemical; conditions: LNP formulated with the named lipid; for EE %: Ribogreen assay; for Diameter (nm) / PDI: dynamic light scattering
Protocol: Representative LNP Characterization Data. The diameter, polydispersity index (PDI), and % EE were characterized for various LNPs.
LNP characterization. Concentration of mRNA was determined using a Quant-IT Ribogreen assay. LNPs were diluted in either native TE buffer (ThermoFisher) or denaturing TE buffer+0.5% Triton-X 100 (Millipore-Sigma) to measure the “free” and total mRNA, respectively. 100 μL of these unknowns were added to a black 96-well plate. Separately, standard curves ranging from 2 ng/μL-0 ng/μL were prepared in each of these buffers and 100 μL were added to the same 96-well plate. Finally, Quant-IT Ribogreen reagent (ThermoFisher) was diluted 1:200 in TE buffer and 100 μL of this solution was added to each of the wells. The well plate was then mixed at 400 rpm with a plate shaker for 5 mins. and the fluorescence was read with an excitation/emission of 485/535. LNPs were measured in triplicate and standards were measured in duplicate. RNA concentration in each of the unknown wells was calculated by fitting the standard curves with a linear trendline. Encapsulation efficiency (% EE) was calculated according to: […]
Dynamic light scattering and zeta potential measurements were performed using a Malvern Zetasizer system. The reported diameter and PDI were obtained from the cumulants fit of the autocorrelation function. Zeta potential measurements were performed in 0.1×PBS, pH 7.4 and calculated using the Smoluchowski approximation.

BALB/c mice = conditions: spike mRNA LNPs on day 0 and day 21, serum day 35
Protocol: Briefly, 6-8 week old BALB/c mice were vaccinated with 1 g of mRNA LNPs on day 0 and on day 21, and serum was collected on day 35 to characterize the antibody response to vaccination.
Immunization studies. […] All LNPs were injected IM in the quadricep with an injection volume of 50 μL with the doses specified in the main text. All vaccination experiments followed a prime-boost dosing regimen with doses given on day 0 and day 21. On day 35, mice were sacrificed, and blood was collected via cardiac puncture and their spleens were collected for further characterization.
Binding antibody ELISAs. […] Plates were coated overnight at 4° C. by adding 100 μL of a 1 μg/mL antigen solution in 100 mM carbonate buffer, pH 9.6 to each well. The coated plates were then washed with ELISA wash buffer (Biolegend) and blocked for 1 hr. at room temperature (RT) with 150 μL of 1% BSA in PBS. The plate was then washed again, and 100 μL of serially diluted serum samples were then added to the plate and incubated at RT for 1 hr. Next, the plate was washed and the secondary goat anti-mouse IgG, HRP antibody (ThermoFisher) was diluted 1:3,000. 100 μL of this solution added to each well an incubated at RT for 1 hr. After incubation, the plate was washed and 100 μL of TMB chromogen solution (ThermoFisher) was added to each well and incubated for 30 mins. Finally, the HRP reaction was stopped by the addition of 100 μL of 0.5 M H2SO4. The absorbance of each well was immediately read at 450 nm with 600 nm as a reference using an Infinite M200 Pro (Tecan) plate reader. The resultant data were then fit with a 4-PL sigmodal curve and the endpoint titers were taken as the point at which this curve crossed four times the absorbance of the blank wells.

mice = conditions: for protein expression relative to MD-1: in vitro and in vivo via intramuscular administration (FIGS. 6A-6B)
Protocol: Evaluation of the LNPs via intramuscular injection. The in vivo potency of the ionizable lipids was screened through intramuscular injection of LNPs loaded with mRNA encoding firefly luciferase protein. These LNPs were formulated with a molar composition of (35:16:46.5:2.5) using one of the synthesized ionizable lipids, DOPE as a helper lipid, cholesterol, and DMPE-PEG respectively. mRNA-loaded LNPs were intramuscularly administered in mice at a dose of 1 μg, and expression of luciferase protein was monitored at 6 hours via IVIS bioluminescent imaging (FIG. 3). […] Without wishing to be bound by theory, increased levels of protein expression may enhance the response to vaccination.
In Vitro and In Vivo Screening of AMG Lipid Library. Following synthesis, the mRNA delivery efficacy of the AMG lipids was evaluated through both in vitro and in vivo screens. To screen the first generation of AMG lipids (FIGS. 11B and 11C), firefly luciferase (FLuc) mRNA was encapsulated into LNPs using a previously reported formulation containing ionizable lipid, 1,2-dioleoyl-sn-glycero-3-phosphoethanolamine (DOPE), cholesterol, and 1,2-dimyristoyl-rac-glycero-3-methoxypolyethylene glycol-2000 (DMG-PEG).^19 C2C12 myoblast cells were treated with these LNPs and FLuc expression was evaluated at 24 hrs. (FIG. 16). […] Each of these batches was then injected IM into the quadriceps of mice, and expression was characterized via IVIS imaging (Screen 1, FIG. 11E).
AMG lipids for enhanced mRNA delivery and improved tolerability. A rational design approach was used to further vary the ionizable lipid structure to enhance the mRNA delivery and immunogenicity. […] The lipid tail structure was varied to promote efficient LNP self-assembly while simultaneously promoting endosomal membrane disruption.^18 Monounsaturated (G41-G44) or fully saturated (GC12-GC18) lipid tails were developed. […] Without wishing to be bound by any particular theory, tail length may impact membrane fusion and endosomal escape.^10,11
Next, the headgroup was further modified to further improve delivery. Headgroups play a multifunctional role including enhancing LNP-mRNA interactions, promoting membrane-LNP fusion and endosomal escape which all contribute to mRNA delivery.^23 A series of similar aza-crown ethers were used to further investigate structure-activity relationship and enhance mRNA delivery. These headgroups featured between three and eight nitrogens linked by varying length of methylene chains. Each of these headgroups were reacted with tail G41 to synthesize a next generation of AMG lipids, which were then formulated with FLuc mRNA and evaluated for mRNA delivery following IM administration in mice (FIG. 12B).

[2] = tissue not named
[3] = Ethanol solubility of ionizable lipids; assay type: physicochemical
Text: AMG lipids for enhanced mRNA delivery and improved tolerability.

[4] = system: influenza A/Tasmania/503/2020 virus; assay: Hemagglutination inhibition (HAI) assay, neutralizing antibody titers after HA mRNA vaccination; assay type: in vivo, BALB/cJ mice; conditions: female BALB/cJ mice, dose-response vaccination
Protocol: To test this, a dose-response vaccination experiment ranging from […] was performed in female BALB/cJ mice. Neutralizing antibody titers were evaluated using the hemagglutination inhibition (HAI) assay. HAI titers are strongly correlated with vaccine protection and the assay is an FDA approved method for testing influenza vaccine efficacy^38,39 In agreement with the binding antibody titers, higher neutralizing […] were measured across all three tested doses: SM-102 only gave detectable neutralizing immunity at a 1 μg dose, while AMG1541 gave neutralizing immunity with as little was 10 ng of mRNA (FIG. 13H). Not only was AMG1541 able to generate neutralizing immunity at a very low dose, the binding and neutralizing antibody titers were equivalent in mice vaccinated with AMG1541 at a […] as those with SM-102 at a […] (FIG. 13H).
HAI Assay. HAI assays were performed by IBT bioservices. Viral titers were standardized by defining one HA unit as the amount of inactivated influenza A/Tasmania/503/2020 virus required to completely hemagglutinate an equal volume of 1% turkey red blood cells (TRBCs) (Lampire). Serum was heat inactivated at 56° C. then receptor destroying enzyme (RDE) (DENKA) was added to the serum and incubated at 37° C. for 20 hrs. RDE was then deactivated at 56° C. for 60 mins. Serum samples were then serially diluted in DPBS and 25 μL of diluted serum was added to a 96-well V bottom plate. Subsequently, four HA units of inactivated virus in 25 μL of DPBS were added to the diluted serum and incubated for 30 mins. at RT. 50 μL of a 1% (4×10^7 cells/mL) solution of turkey red blood cells (Lampire) was then added to the serum and virus mixture.

[5] = in vivo; cited from earlier work

Row | Structure (SMILES) | EE % [1] [%] | Diameter (nm) [1] [nm] | PDI [1] | ethanol solubility [3] | protein expression relative to MD-1 (mice) | other results
1 | CCCCCC/C=C\CCCC(=O)OCC(O)CN1CCN(CC(O)COC(=O)CCC/C=C\CCCCCC)CCN(CC(O)COC(=O)CCC/C=C\CCCCCC)CCN(CC(O)COC(=O)CCC/C=C\CCCCCC)CCN(CC(O)COC(=O)CCC/C=C\CCCCCC)CCN(CC(O)COC(=O)CCC/C=C\CCCCCC)CCN(CC(O)COC(=O)CCC/C=C\CCCCCC)CC1 (stereo not drawn) [AMG1741] | 82.99 | 88 | 0.156 | – | – | antibody titers after vaccination (BALB/c mice): high levels of antibody titers
2 | CCCCCC/C=C\CCCC(=O)OCC(O)CN1CCCN(CC(O)COC(=O)CCC/C=C\CCCCCC)CCN(CC(O)COC(=O)CCC/C=C\CCCCCC)CCCN(CC(O)COC(=O)CCC/C=C\CCCCCC)CC1 (stereo not drawn) [AMG1041] | – | 81.79 | 0.113 | – | – | fold higher expression than AMG104 (mice; IM, tail derivatives, 5 μg, 24 hours): ~3 fold; [AMG1041] ng/g tissue ([2]; Time 0 hrs): 0 ng/g tissue; [AMG1041] ng/g tissue ([2]; Time 1 hrs): 32200 ng/g tissue and 24800 ng/g tissue and 28000 ng/g tissue; [AMG1041] ng/g tissue ([2]; Time 2 hrs): 14000 ng/g tissue and 23400 ng/g tissue and 20400 ng/g tissue; [AMG1041] ng/g tissue ([2]; Time 4 hrs): 17200 ng/g tissue and 12600 ng/g tissue and 9400 ng/g tissue; [AMG1041] ng/g tissue ([2]; Time 8 hrs): 4800 ng/g tissue and 8000 ng/g tissue; [AMG1041] ng/g tissue ([2]; Time 24 hrs): 600 ng/g tissue; antibody titers after vaccination (BALB/c mice): high levels of antibody titers
3 | CCCCCCCCCCCCCCCC(=O)OCC(O)CN1CCCN(CC(O)COC(=O)CCCCCCCCCCCCCCC)CCN(CC(O)COC(=O)CCCCCCCCCCCCCCC)CCCN(CC(O)COC(=O)CCCCCCCCCCCCCCC)CC1 (mixture of isomers) [AMG10C16] | – | – | – | poor ethanol solubility | – | –
4 | CCCCCCCCCCCCCCCCCC(=O)OCC(O)CN1CCCN(CC(O)COC(=O)CCCCCCCCCCCCCCCCC)CCN(CC(O)COC(=O)CCCCCCCCCCCCCCCCC)CCCN(CC(O)COC(=O)CCCCCCCCCCCCCCCCC)CC1 (mixture of isomers) [AMG10C18] | – | – | – | poor ethanol solubility | – | –
5 | CCCCCCCCCCCOC(=O)CCCCCN(CCO)CCCCCCCC(=O)OC(CCCCCCCC)CCCCCCCC [SM-102, reference compound] | – | – | – | – | – | fold higher mRNA transfection in the liver and spleen compared to AMG1541 (mice; FLuc expression in liver and spleen 6 hours after IM injection): ~100 fold; dose giving detectable neutralizing immunity [4]: 1 µg; time SM-102 remained detectable at the injection site [5]: at least 48 hours; time SM-102 remained detectable in the liver and spleen [5]: at least 10 hours
6 | CCCCCCCCCCCCCC(=O)OCC(O)CN1CCCN(CC(O)COC(=O)CCCCCCCCCCCCC)CCN(CC(O)COC(=O)CCCCCCCCCCCCC)CCCN(CC(O)COC(=O)CCCCCCCCCCCCC)CC1 (mixture of isomers) [AMG10C14] | – | – | – | poor ethanol solubility | – | –
7 | CC/C=C\C/C=C\CCCCC(=O)OCC(O)CN1CCN(CC(O)COC(=O)CCCC/C=C\C/C=C\CC)CCN(CC(O)COC(=O)CCCC/C=C\C/C=C\CC)CCN(CC(O)COC(=O)CCCC/C=C\C/C=C\CC)CCN(CC(O)COC(=O)CCCC/C=C\C/C=C\CC)CCN(CC(O)COC(=O)CCCC/C=C\C/C=C\CC)CC1 (stereo not drawn) [AMG1555] | 88.37 | 83 | 0.077 | – | superseded or matched MD-1 | –
8 | CCCC/C=C\CCCCCC(=O)OCC(O)CN1CCN(CC(O)COC(=O)CCCCC/C=C\CCCC)CCN(CC(O)COC(=O)CCCCC/C=C\CCCC)CCN(CC(O)COC(=O)CCCCC/C=C\CCCC)CCN(CC(O)COC(=O)CCCCC/C=C\CCCC)CCN(CC(O)COC(=O)CCCCC/C=C\CCCC)CC1 (stereo not drawn) [AMG1548] | 54.6 | 104.7 | 0.106 | – | superseded or matched MD-1 | –
9 | CC/C=C\CCCCCCCC(=O)OCC(O)CN1CCN(CC(O)COC(=O)CCCCCCC/C=C\CC)CCN(CC(O)COC(=O)CCCCCCC/C=C\CC)CCN(CC(O)COC(=O)CCCCCCC/C=C\CC)CCN(CC(O)COC(=O)CCCCCCC/C=C\CC)CCN(CC(O)COC(=O)CCCCCCC/C=C\CC)CC1 (stereo not drawn) [AMG1550] | 78.09 | 93 | 0.119 | – | superseded or matched MD-1 | –
